Reference: publication PMC9525908, “α-Crystallin chaperone mimetic drugs inhibit lens γ-crystallin aggregation: Potential role for cataract prevention” (The Journal of Biological Chemistry, 2022)
Positions count from the first letter of the chain named. Where “and” joins values, the source holds several entries; their conditions need not be identical. Equal entries are not always repeated. Where two headings read alike, the source gives them in different places.

Experiments:
HγS_N14D = molecular target: T1, HγS_N14D (Homo sapiens, UniProt P22914, N15D); test: Thermal aggregation (72 °C, 20 min) turbidity assay, HγS_N14D; format: biochemical; details: read-out: % Suppression; for inhibition: HγS_N14D, 75 μM protein, 72 °C 20 min
T1 sequence (P22914 1-178 N15D): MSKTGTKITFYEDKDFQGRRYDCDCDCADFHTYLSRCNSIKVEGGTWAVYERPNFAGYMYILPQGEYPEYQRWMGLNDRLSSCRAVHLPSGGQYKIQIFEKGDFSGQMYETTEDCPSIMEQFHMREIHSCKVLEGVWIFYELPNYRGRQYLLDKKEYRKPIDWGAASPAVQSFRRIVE
Text: (§1) For a review, see the study by Roskamp et al. ([38]). […] For the mechanistic studies below these two compounds together with either drug M, chosen mostly as negative control, or the entire set of six compounds were used for comparison purpose, whereby the words “drug” or “compound” are used interchangeably in the studies later.

WT-MγS [1] = molecular target: T2, WT-MγS (Mus musculus, UniProt O35486); test: End-point heat-mediated turbidity assay, WT-MγS; format: biochemical; details: for inhibition at 500 µM: read-out: Percent Inhibition of heat mediated aggregation, WT-MGS; for Effect on MγS absorbance: 400 μM drug, 72 °C, protein above 0.5 mg/ml
T2 construct: made in house; host or cells: E. coli BL21(DE3) pLysS, pET17b vector
T2 sequence (O35486 1-178): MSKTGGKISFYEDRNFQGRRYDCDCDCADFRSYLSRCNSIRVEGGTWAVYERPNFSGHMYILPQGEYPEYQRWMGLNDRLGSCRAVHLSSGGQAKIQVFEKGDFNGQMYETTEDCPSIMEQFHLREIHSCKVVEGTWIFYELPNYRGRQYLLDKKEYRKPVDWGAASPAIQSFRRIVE
Description: For end-point assays, HγD and MγS (1 mg/ml, 100 μl) in 50 mM K3PO4 buffer (pH 7.2) in set of triplicates in transparent flat bottom 96-well plates were heated at 72 °C for 20 min in the presence and absence of selected drugs at varying concentrations. Absorbance was measured at 600 nm with a SpectraMax iD5 (Molecular Devices). […]
(§2) Final DMSO concentration was 5% including in control samples. Microtiter plates were first incubated for 10 min at 72 °C and reincubated for 10 more min. Absorbance was measured at both 10 and 20 min total incubation time.

WT-MγS [2] = molecular target: T2, WT-MγS; test: bis-ANS binding study, WT-MγS; details: read-out: Percent inhibition of binding of bis-ANS, WT-MγS
Description: (§3) Extrinsic fluorescence spectra were recorded using bis-ANS, a well-known surface hydrophobicity probe. The spectra were recorded between 400 and 600 nm after exciting at 390 nm. The experiment was performed on 10 μM of HγD and MγS in 50 mM K3PO4 buffer with and without our candidate drugs (100 μM). Bis-ANS stock solution was prepared in methanol whose final percentage was maintained below 7 after mixing with proteins ([81]).

Bovine γ-crystallins = test: Thermal aggregation (72 °C) turbidity assay, bovine γ-crystallins (pool 4); format: biochemical; details: for Thermal denaturation inhibitory activity in subscreen: 150 μM; for Thermal denaturation inhibitory activity in subscreen / % Suppression: 72 °C 20 min; for % Suppression: 75 μM protein, 125 μM or less inhibitor (1.7:1); for Effect on BGC aggregation at lower protein concentrations / Effect on absorbance of BGC at 2.0 mg/ml: 400 μM drug, 72 °C, 10 and 20 min
Description: Candidate compounds were rescreened using thermal denaturation upon heating at 72 °C for 20 min according to Chen et al. ([36]) in order to select for compounds with chaperone rather than antioxidant activity since a large number of the latter already exist in the cataract field ([37]).
as §1
All assays were carried out manually in CORNING #9017 Costar Assay 96-well plates. Wells were filled with 90 μl calf γ-crystallin-rich protein solution (pool 4 at 2 mg/ml) followed by 0.5 to 5.0 μl of drug (all 10 mM stock solution in DMSO) as supplied by the manufacturer and 10 μl H2O2 (450 mM stock solution in water) and sealed with sticky Applied Biosystems MicroAmp Clear Adhesive films (Life Technologies). Control wells received DMSO only. Plates were shaken for 2 min and incubated from 24 to 72 h in a culture room at 37 °C. […] A second reading was performed following a heat shock of 20 min at 72 °C as described by Chen et al. ([36]) in order to capture drugs with heat-resistant chaperone activity. In order to quantitate the impact of the drugs on aggregation, a fitness plot was created (Fig. 1 C) that allowed us to identify wells with enhanced/worsening versus suppressed crystallin aggregation. In addition, aggregation in each well was also visually assessed by two independent “blinded” readers for the ability to read fine print through each well by placing the plates over small font text (Fig. 1D). Both machine and visual readouts were reconciled in order to increase robustness.
as §2

HγS_N143D = molecular target: T3, HγS_N143D (Homo sapiens, UniProt P22914, N144D); test: Thermal aggregation (72 °C, 20 min) turbidity assay, HγS_N143D; format: biochemical; details: 20 min, read-out: % Suppression; for inhibition: HγS_N143D, 75 μM protein, 72 °C 20 min
T3 sequence (P22914 1-178 N144D): T1 sequence (P22914 1-178 N15D) with D15N, N144D
Text: as §1

[3] = system: γ-crystallins (bovine, HγD and HγS crystallins); test: Mean aggregation suppression across all γ-crystallins tested; format: biochemical; design: concentration or dose not given beside the values; details: mean of all experiments in Table 2 (n=9)
Text: as §1
Table S 4: List of primers used for making WT -HγD mutants

HγS = molecular target: T4, HγS (Homo sapiens, UniProt P22914); test: Thermal aggregation (72 °C, 20 min) turbidity assay, HγS; format: biochemical; details: 20 min, read-out: % Suppression; for inhibition: HγS, 75 μM protein, 72 °C 20 min
T4 sequence (P22914 1-178): T1 sequence (P22914 1-178 N15D) with D15N
Text: as §1

WT-HγD = molecular target: T5, WT-HγD (Homo sapiens, UniProt P07320); test: bis-ANS binding study, WT-HγD; details: 10 μM protein, 100 μM drug; read-out: Percent inhibition of binding of bis-ANS, WT-HγD
T5 construct: made in house; host or cells: E. coli BL21(DE3) pLysS, pET3d vector
T5 sequence (P07320 1-174): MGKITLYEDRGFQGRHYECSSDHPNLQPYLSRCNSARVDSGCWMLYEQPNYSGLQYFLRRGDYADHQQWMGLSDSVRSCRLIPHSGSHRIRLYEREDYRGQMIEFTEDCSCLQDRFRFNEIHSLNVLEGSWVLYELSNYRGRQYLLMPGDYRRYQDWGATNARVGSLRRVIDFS
Description: as §3

[4] = 500 μM drug, end point of turbidity assay 72 °C 20 min
[5] = Bovine γ-crystallins experiment 1
[6] = Bovine γ-crystallins experiment 2

inhibition (HγS_N14D)	inhibition at 500 µM (WT-MγS [1]; [4])	inhibition at 100 µM (WT-MγS [2]; 10 μM protein, 100 μM drug)	inhibition (HγS_N143D)	inhibition (HγS)	SMILES	Thermal denaturation inhibitory activity in subscreen (Bovine γ-crystallins)	% Suppression (Bovine γ-crystallins; [5])	% Suppression (Bovine γ-crystallins; [6])	Mean % suppression / inhibition of γ-crystallin aggregation against thermal denaturation [3]	inhibition at 100 µM (WT-HγD)	inhibition at 125 µM (HγS_N14D)	Effect on MγS absorbance (WT-MγS [1])	inhibition at 500 µM (WT-MγS [1])	inhibition at 100 µM (WT-MγS [2])	Effect on BGC aggregation at lower protein concentrations (Bovine γ-crystallins)	Effect on absorbance of BGC at 2.0 mg/ml (Bovine γ-crystallins)	inhibition at 125 µM (HγS_N143D)	inhibition at 125 µM (HγS)
51%	55.5 ± 8.03%	11.94 ± 0.0018%	25%	60%	COC(=O)/C=C/C(C)=C\C=C\C(C)=C\C=C\C=C(C)\C=C\C=C(C)\C=C\C(=O)O [drug B, Bixin]	thermal denaturation inhibitory activity	23%	54%	49% and 48.8%	27.86 ± 0.0009%								
					Cc1cc(C(C#N)c2ccc(Cl)cc2)c(Cl)cc1NC(=O)c1cc(I)cc(I)c1O (stereo not drawn) [drug C, Closantel]	thermal denaturation inhibitory activity	60%	73%	69% and 68.6%	43.82 ± 0.0012%	77%	blocked absorbance	80.5 ± 1.87%	27.16 ± 0.0011%	stimulated aggregation	reproducibly suppressed absorbance	52%	71%
					CC(C)=CCCC1(C)C=Cc2c(O)c3c(c(CC=C(C)C)c2O1)OC12C(=CC4CC1C(C)(C)OC2(C/C=C(/C)C(=O)O)C4O)C3=O (stereo not drawn) [drug D, dihydrogambogic acid]	thermal denaturation inhibitory activity	40%	44%	54%	34.5 ± 0.0006%	76%		80.4 ± 0.44%	19.49 ± 0.0018%			30%	61%
					CC(C)=CCC[C@]1(C)C=Cc2c(O)c3c(c(CC=C(C)C)c2O1)O[C@]12C(=C[C@@H]4C[C@H]1C(C)(C)O[C@@]2(C/C=C(/C)C(=O)O)C4=O)C3=O [drug G, Gambogic acid]	thermal denaturation inhibitory activity	48%	75%	64% and 64.2%	44.64 ± 0.0011%	73%	blocked absorbance	80.5 ± 2.45%	40.72 ± 0.0008%	stimulated aggregation	reproducibly suppressed absorbance	48%	46%
48%	46.3 ± 4.23%	1.95 ± 0.0017%	25%	39%	O=C(O)CCCCCCCCCCCC[C@@H]1C=CCC1 [drug M, Chaulmoogric acid]	thermal denaturation inhibitory activity	40%	16%	42% and 42.2%	4.28 ± 0.0003%								
					Oc1c(Cl)cc(Cl)c(Cl)c1Cc1c(O)c(Cl)cc(Cl)c1Cl [drug X, Hexachlorophene]	thermal denaturation inhibitory activity	30%	55%	56% and 55.8%	15.16 ± 0.001%	60%		39.7 ± 3.42%	10.17 ± 0.0014%			50%	68%
